Source: ChEMBL document CHEMBL5131389, “PSMA-targeted small-molecule docetaxel conjugate: Synthesis and preclinical evaluation” (Eur J Med Chem, 2022)
In brackets after ≈: the same amount, converted by molar mass. Activity calls are given as the source filed them. The calls are words filed in the database; no cut-off is given here.

Tests used:
[1] = Subchronic toxicity in Wistar rat assessed as tolerance at 58 mg/kg, iv administered as pluronic F127 formulation daily for 28 days; format: organism-based; conditions: in vivo, 672 h, time 28 day
[2] = Chronic toxicity in rat assessed as reduction in number of peeping into holes at 22.5 mg/kg, iv administered as pluronic F127 formulation at 4 intervals for 21 days and observed 3 weeks post last injection; format: organism-based; conditions: in vivo, 2544 h, time 106 day
[3] = Acute toxicity in ICR mouse assessed as liver damage at 183 to 960 mg/kg, iv administered as pluronic F127 formulation and measured for 14 days; format: organism-based; conditions: in vivo, 336 h, dose 183-960 mg/kg, time 14 day
[4] = Chronic toxicity in rat assessed as increase in relative kidney weight at 18.75 mg/kg, iv administered as pluronic F127 formulation at 4 intervals for 21 days and observed 3 weeks post last injection; format: organism-based; conditions: in vivo, 2544 h, time 106 day
[5] = AUC (0 to infinity) in Soviet Chinchilla rabbit at 8.1 mg/kg, iv administered as pluronic F127 formulation measured upto 72 hrs by high-performance liquid chromatography tandem mass spectrometric analysis; format: ADME, organism-based, Oryctolagus cuniculus; parameters: dose 8.1 mg/kg, time < 72 hrs, route iv; conditions: in vivo
[6] = Acute toxicity in Wistar rat assessed as kidney lesion at 15 to 279 mg/kg, iv administered as pluronic F127 formulation and measured for 14 days; format: organism-based; conditions: in vivo, 336 h, dose 15-279 mg/kg, time 14 day
CWR22R [7] = experiment: Cytotoxicity against human 22Rv1 cells assessed as reduction in cell viability measured after 72 hrs by MTT assay; format: functional
[8] = Acute toxicity in Wistar rat assessed as coprostasis at 15 to 279 mg/kg, iv administered as pluronic F127 formulation and measured for 14 days; format: organism-based; conditions: in vivo, 336 h, dose 15-279 mg/kg, time 14 day
[9] = Chronic toxicity in rat assessed as change in relative heart mass at 15 to 18.75 mg/kg, iv administered as pluronic F127 formulation for 4 intervals of 21 days and observed 3 weeks post last injection relative to control; format: organism-based; conditions: in vivo, 2544 h, dose 15-18.75 mg/kg, time 106 day
[10] = Toxicity in Balb/c nude mouse xenografted with human 22Rv1 cells assessed as animal death at 10 mg/kg, ip measured upto 30 days; format: organism-based, CWR22R; conditions: in vivo, 720 h, time < 30 day
[11] = Chronic toxicity in rat assessed as increase in relative mass of pancreas administered intravenously as pluronic F127 formulation at 4 intervals for 21 days and observed 3 weeks post last injection relative to control; format: tissue-based; conditions: in vivo, iv, 2544 h, time 106 day
[12] = Chronic toxicity in rat assessed as neurological disorder at 15 to […] mg/kg, iv administered as pluronic F127 formulation at 4 intervals for 21 days and observed 3 weeks post last injection; format: organism-based; conditions: in vivo, 2544 h, dose lower 15 mg/kg, time 106 day
[13] = Stability of the compound in pH 7.4 buffer measured upto 96 hrs by LC-MS based mass spectrometric analysis; format: physicochemical; conditions: pH 7.4, 96 h
[14] = Acute toxicity in Wistar rat assessed as animal death at 15 to 279 mg/kg, iv administered for 14 days as pluronic F127 formulation and measured after 3 days; format: organism-based; conditions: in vivo, 408 h, dose 15-279 mg/kg, time 17 day
CWR22R [15] = experiment: Effect on cell stiffness in human 22Rv1 cells assessed as increase in young's modulus at 2.7 nM measured after 1 hr by topography based scanning ion-conductance microscopic analysis; format: functional
[16] = Acute toxicity in ICR mouse assessed as maximum tolerated dose administered intravenously as pluronic F127 formulation and measured for 14 days; conditions: in vivo, route iv, time 14 day
[17] = Chronic toxicity in rat assessed as decrease in erythrocytes in blood administered intravenously as pluronic F127 formulation at 4 intervals for 21 days and observed 3 weeks post last injection relative to control; format: cell-based; conditions: iv, 2544 h, time 106 day
[18] = Clearance in Albino Wistar rat at 15 mg/kg, iv administered as pluronic F127 formulation measured upto 72 hrs by high-performance liquid chromatography tandem mass spectrometric analysis; format: ADME, organism-based; conditions: in vivo
[19] = Chronic toxicity in Soviet Chinchilla rabbit assessed as increase in relative pancreas mass at 8.14 to 12.21 mg/kg, iv administered as pluronic F127 formulation at 4 intervals for 21 days and observed 3 weeks post last injection; format: organism-based, Oryctolagus cuniculus; conditions: in vivo, 2544 h, dose 8.14-12.21 mg/kg, time 106 day
CWR22R [20] = experiment: Antitumor activity against human 22Rv1 cells xenografted in Balb/c nude mouse assessed as tumor growth inhibition at 10 mg/kg, ip administered once in two days for three times and measured 1 day after the end of treatment relative to control; format: functional; conditions: 22Rv1, 168 h, time 7 day, read-out: TGI
[21] = Volume of distribution in Soviet Chinchilla rabbit at 8.1 mg/kg, iv administered as pluronic F127 formulation measured upto 72 hrs by high-performance liquid chromatography tandem mass spectrometric analysis; format: ADME, organism-based, Oryctolagus cuniculus; conditions: in vivo
[22] = AUC (0 to infinity) in Albino Wistar rat at 15 mg/kg, iv administered as pluronic F127 formulation measured upto 72 hrs by high-performance liquid chromatography tandem mass spectrometric analysis; format: ADME, organism-based; parameters: dose 15 mg/kg, time < 72 hrs, route iv; conditions: in vivo
[23] = Acute toxicity in ICR mouse assessed as coprostasis at 183 to 960 mg/kg, iv administered as pluronic F127 formulation and measured for 14 days; format: organism-based; conditions: in vivo, 336 h, dose 183-960 mg/kg, time 14 day
[24] = Chronic toxicity in rat assessed as increase in relative brain mass administered intravenously as pluronic F127 formulation at 4 intervals for 21 days and observed 3 weeks post last injection relative to control; format: tissue-based; conditions: in vivo, iv, 2544 h, time 106 day
CWR22R [25] = experiment: Antitumor activity against human 22Rv1 cells xenografted in Balb/c nude mouse assessed as tumor growth inhibition at 30 mg/kg, ip administered daily for 5 days and measured at day 34 relative to control; format: functional; parameters: scale not given: the % may be the effect or the level left; conditions: time 34 day
[26] = Chronic toxicity in Soviet Chinchilla rabbit assessed as animal death administered intravenously as pluronic F127 formulation at 4 intervals for 21 days and observed 3 weeks post last injection; parameters: species or system Oryctolagus cuniculus; conditions: in vivo, iv, 2544 h, time 106 day
[27] = Selectivity ratio of CC50 for cytotoxicity against human PC-3 cells to CC50 for cytotoxicity against human 22Rv1 cells
[28] = Clearance in Soviet Chinchilla rabbit at 8.1 mg/kg, iv administered as pluronic F127 formulation measured upto 72 hrs by high-performance liquid chromatography tandem mass spectrometric analysis; format: ADME, organism-based, Oryctolagus cuniculus; conditions: in vivo
DU-145 = experiment: Antitumor activity against human DU-145 cells xenografted in BALB/c nude mouse assessed as tumor growth inhibition at 60 mg/kg, ip measured upto 30 days; format: functional; conditions: DU-145, 720 h, time <= 30 day, read-out: TGI
[29] = Aqueous solubility of compound; format: physicochemical
[30] = Acute toxicity in ICR mouse assessed as decrease in body weight administered intravenously as pluronic F127 formulation and measured for 14 days; conditions: in vivo, iv, 336 h, dose 183-960 mg/kg, time 14 day
[31] = Volume of distribution in Albino Wistar rat at 15 mg/kg, iv administered as pluronic F127 formulation measured upto 72 hrs by high-performance liquid chromatography tandem mass spectrometric analysis; format: ADME, organism-based; conditions: in vivo
CWR22R [32] = experiment: Antitumor activity against human 22Rv1 cells xenografted in Balb/c nude mouse assessed as tumor growth inhibition at 20 mg/kg, ip administered once in two days for three times and measured 1 day after the end of treatment relative to control; format: functional; conditions: 22Rv1, 168 h, time 7 day, read-out: TGI

CC(=O)O[C@@]12CO[C@@H]1C[C@H](O)[C@@]1(C)C(=O)[C@H](O)C3=C(C)[C@@H](OC(=O)[C@H](OC(=O)CCCc4cn(CCCNC(=O)[C@H](Cc5ccc(O)cc5)NC(=O)[C@H](Cc5ccccc5)NC(=O)CCC(=O)NCCCCCC(=O)N(CCCC[C@H](NC(=O)N[C@@H](CCC(=O)O)C(=O)O)C(=O)O)Cc5cccc(Cl)c5)nn4)[C@@H](NC(=O)OC(C)(C)C)c4ccccc4)C[C@@](O)([C@@H](OC(=O)c4ccccc4)[C@H]21)C3(C)C
Activity [1]: Toxic
Activity [2]: Toxic
Activity [3]: Toxic
Activity [4]: Toxic
AUC(0-inf) [5]: 289 µg·h/mL
Activity [6]: Toxic
CC50 (CWR22R [7]): 2.7 nM
Activity [8]: Toxic
Activity [9]: Toxic
Activity [10]: Non-Toxic
Activity [11]: Toxic
Activity [12]: Non-Toxic
Stability [13]: Unstable
Activity [14]: Toxic
Activity (CWR22R [15]): Active
MTD at 336 h [16]: 183 mg/kg
Activity [17]: Toxic
clearance [18]: 9.15 mL/min/kg
Activity [19]: Toxic
inhibition in vivo at 10 mg/kg (CWR22R [20]): 84%
Vd [21]: 0.332 L/kg
AUC(0-inf) [22]: 34 µg·h/mL
Activity [23]: Toxic
Activity [24]: Toxic
Activity (CWR22R [25]): 80%
Activity [26]: Non-Toxic
Selectivity ratio [27]: 1
clearance [28]: 0.483 mL/min/kg
inhibition in vivo at 60 mg/kg (DU-145): 83.7%
solubility [29]: 130 µg/mL (≈ 66.6 µM)
Activity [30]: Toxic
Vd [31]: 0.631 L/kg
inhibition in vivo at 20 mg/kg (CWR22R [32]): 78%
